Experimental data from ChEMBL document CHEMBL3867430, “Novel 3,4-seco bile acid diamides as selective anticancer proliferation and migration agents” (Eur J Med Chem, 2016).

Experiments:
[1] = Antiproliferative activity against HAF cells after 48 hrs by SRB assay; type: cell-based; conditions: Homo sapiens
[2] = Selectivity index, ratio of IC50 for HAF cells to IC50 for human PC3M cells; type: functional
[3] = Antiproliferative activity against human HT-29 cells after 48 hrs by SRB assay; type: functional, cell-based; conditions: HT-29, 48 h
[4] = Antiproliferative activity against human PC3M cells after 48 hrs by SRB assay; type: functional, cell-based; conditions: PC-3M
[5] = Antiproliferative activity against human ES2 cells after 48 hrs by SRB assay; type: functional, cell-based; conditions: ES-2, 48 h
[6] = Selectivity index, ratio of IC50 for HAF cells to IC50 for human HT-29 cells; type: functional
[7] = Selectivity index, ratio of IC50 for HAF cells to IC50 for human ES2 cells; type: functional

Structure (SMILES)	IC50 [1] [µM]	Ratio IC50 [2]	IC50 [3] [µM]	IC50 [4] [µM]	IC50 [5] [µM]	Ratio IC50 [6]	Ratio IC50 [7]
C=C(C)C1CC[C@H]2[C@@H]3CC[C@H]([C@H](C)CCC(=O)NCc4ccccc4)[C@@]3(C)CC[C@@H]2[C@@]1(C)CCC(=O)NCc1ccccc1 (some centres undefined)	> 50	>3.7	13	13.6	> 80	>3.9	
C=C(C)C1CC[C@H]2[C@@H]3CC[C@H]([C@H](C)CCC(=O)N4CCN(C5CCCCC5)CC4)[C@@]3(C)CC[C@@H]2[C@@]1(C)CCC(=O)N1CCN(C2CCCCC2)CC1 (some centres undefined)			3.17	12	17		
C=C(C)C1CC[C@H]2[C@@H]3CC[C@H]([C@H](C)CCC(=O)n4cccn4)[C@@]3(C)CC[C@@H]2[C@@]1(C)CCC(=O)n1cccn1 (some centres undefined)			> 80	> 80	> 80		
C=C(C)C1CC[C@H]2[C@@H]3CC[C@H]([C@H](C)CCC(=O)N4CCCC4)[C@@]3(C)CC[C@@H]2[C@@]1(C)CCC(=O)N1CCCC1 (some centres undefined)			23.7	32.4	9.25		
C[C@H](CCC(=O)O)[C@H]1CC[C@H]2[C@@H]3CC[C@@H]4C[C@H](O)CC[C@]4(C)[C@H]3C[C@H](O)[C@]12C [DEOXYCHOLIC ACID]			> 80	> 80	> 80		
C=C(C)C1CC[C@H]2[C@@H]3CC[C@H]([C@H](C)CCC(=O)N4CCN(C(C)C)CC4)[C@@]3(C)CC[C@@H]2[C@@]1(C)CCC(=O)N1CCN(C(C)C)CC1 (some centres undefined)	27	16.3	9.91	1.66	6.68	2.7	4
C=C(C)C1CC[C@H]2[C@@H]3CC[C@H]([C@H](C)CCC(=O)Nc4ccc(F)cc4)[C@@]3(C)CC[C@@H]2[C@@]1(C)CCC(=O)Nc1ccc(F)cc1 (some centres undefined)			> 80	> 80	> 80		
C=C(C)C1CC[C@H]2[C@@H]3CC[C@H]([C@H](C)CCC(=O)NC(C)C)[C@@]3(C)CC[C@@H]2[C@@]1(C)CCC(=O)NC(C)C (some centres undefined)	> 50	>6.7	> 80	7.41	> 80		
C=C(C)C1CC[C@H]2[C@@H]3CC[C@H]([C@H](C)CCC(=O)N4CCN(CC)CC4)[C@@]3(C)CC[C@@H]2[C@@]1(C)CCC(=O)N1CCN(CC)CC1 (some centres undefined)			6.19	8.47	12.5		
C=C(C)C1CC[C@H]2[C@@H]3CC[C@H]([C@H](C)CCC(=O)N4CCN(c5ccccc5)CC4)[C@@]3(C)CC[C@@H]2[C@@]1(C)CCC(=O)N1CCN(c2ccccc2)CC1 (some centres undefined)			> 80	> 80	> 80		
C=C(C)C1CC[C@H]2[C@@H]3CC[C@H]([C@H](C)CCC(=O)N(CC)CC)[C@@]3(C)CC[C@@H]2[C@@]1(C)CCC(=O)N(CC)CC (some centres undefined)	56.2	5.1	6.88	11.1	14.2	8.1	4
C=C(C)C1CC[C@H]2[C@@H]3CC[C@H]([C@H](C)CCC(=O)NC4CC4)[C@@]3(C)CC[C@@H]2[C@@]1(C)CCC(=O)NC1CC1 (some centres undefined)			> 80	17	> 80		
C[C@H](CCC(=O)O)[C@H]1CC[C@H]2[C@@H]3C[C@H](O)[C@@H]4C[C@H](O)CC[C@]4(C)[C@H]3CC[C@]12C [HYODEOXYCHOLIC_ACID]			> 80	> 80	> 80		
C#CCNC(=O)CC[C@@H](C)[C@H]1CC[C@H]2[C@@H]3CCC(C(=C)C)[C@](C)(CCC(=O)NCC#C)[C@H]3CC[C@]12C (some centres undefined)	61.9		85.5	50.4	3.11		20
C=C(C)C1CC[C@H]2[C@@H]3CC[C@H]([C@H](C)CCC(=O)N4CCN(c5ccccc5F)CC4)[C@@]3(C)CC[C@@H]2[C@@]1(C)CCC(=O)N1CCN(c2ccccc2F)CC1 (some centres undefined)			> 80	> 80	> 80		
C=C(C)C1CC[C@H]2[C@@H]3CC[C@H]([C@H](C)CCC(=O)O)[C@@]3(C)CC[C@@H]2[C@@]1(C)CCC(=O)N1CCN(C)CC1 (some centres undefined)			> 80	> 80	53.9		
C[C@H](CCC(=O)O)[C@H]1CC[C@H]2[C@@H]3[C@H](O)C[C@@H]4C[C@H](O)CC[C@]4(C)[C@H]3CC[C@]12C [CHENODIOL]			> 80	> 80	> 80		
C=C(C)C1CC[C@H]2[C@@H]3CC[C@H]([C@H](C)CCCN4CCN(C)CC4)[C@@]3(C)CC[C@@H]2[C@@]1(C)CCCN1CCN(C)CC1 (some centres undefined)			> 80	> 80	> 80		
C=C(C)C1CC[C@H]2[C@@H]3CC[C@H]([C@H](C)CCC(=O)N4CCOCC4)[C@@]3(C)CC[C@@H]2[C@@]1(C)CCC(=O)N1CCOCC1 (some centres undefined)			16.6	22.5	29.6		
C=C(C)C1CC[C@H]2[C@@H]3CC[C@H]([C@H](C)CCC(=O)O)[C@@]3(C)CC[C@@H]2[C@@]1(C)CCC(=O)O (some centres undefined)			> 80	> 80	> 80		
C[C@H](CCC(=O)O)[C@H]1CC[C@H]2[C@@H]3CCC(C(C)(C)O)[C@](C)(CCC(=O)O)[C@H]3CC[C@]12C (some centres undefined)			> 80	> 80	> 80		
CC(C)C1CC[C@H]2[C@@H]3CC[C@H]([C@H](C)CCC(=O)N4CCN(C)CC4)[C@@]3(C)CC[C@@H]2[C@@]1(C)CCC(=O)N1CCN(C)CC1 (some centres undefined)			13.8	12.7	8.2		
C=C(C)C1CC[C@H]2[C@@H]3CC[C@H]([C@H](C)CCC(=O)OC)[C@@]3(C)CC[C@@H]2[C@@]1(C)CCC(=O)N1CCN(C)CC1 (some centres undefined)			13.7	41.8	31.7		
C=C(C)C1CC[C@H]2[C@@H]3CC[C@H]([C@H](C)CCC(N)=O)[C@@]3(C)CC[C@@H]2[C@@]1(C)CCC(N)=O (some centres undefined)			36.7	39.2	36.9		
C=C(C)C1CC[C@H]2[C@@H]3CC[C@H]([C@H](C)CCC(=O)N4CCN(C)CC4)[C@@]3(C)CC[C@@H]2[C@@]1(C)CCC(=O)N1CCN(C)CC1 (some centres undefined)	15.5	3	1.93	5.08	3.63	8	4.3
